How the values were obtained:
[1] = tested on: A498; experiment: In vitro cytotoxic activity against renal (A498) cell line at a concentration of 10e-5 M; type: functional, Homo sapiens
[2] = tested on: MCF7; experiment: In vitro cytotoxic activity against breast (MCF-7/ADR) cell line; type: functional; settings: Homo sapiens
[3] = tested on: NCI-H522; experiment: In vitro cytotoxic activity against lung (H522) cell line; settings: Homo sapiens
[4] = tested on: U-251; experiment: In vitro cytotoxic activity against CNS(U251) cell line; type: functional; settings: Homo sapiens
[5] = tested on: SK-OV-3; experiment: In vitro cytotoxic activity against Ovarian (SK-OV3) cell line; type: functional; settings: Homo sapiens
[6] = tested on: SK-OV-3; experiment: In vitro cytotoxic activity against Ovarian (SK-OV3) cell line at a concentration of 10e-5 M; type: functional, Homo sapiens
[7] = tested on: NCI-H522; experiment: In vitro cytotoxic activity against lung (H522) cell line at a concentration of 10e-5 M
[8] = tested on: SW-620; experiment: In vitro cytotoxic activity against colon (SW620) cell line; type: functional; settings: Homo sapiens
[9] = tested on: M14; experiment: In vitro cytotoxic activity against Melanoma (M14) cell line; type: functional; settings: Homo sapiens
[10] = tested on: SW-620; experiment: In vitro cytotoxic activity against colon (SW620) cell line at a concentration of 10e-5 M; type: functional, Homo sapiens
[11] = tested on: DU-145; experiment: In vitro cytotoxic activity against prostate (DU145) cell line at a concentration of 10e-5 M; type: functional, Homo sapiens
[12] = tested on: A498; experiment: In vitro cytotoxic activity against renal (A498) cell line; type: functional; settings: Homo sapiens
[13] = tested on: U-251; experiment: In vitro cytotoxic activity against CNS(U251) cell line at a concentration of 10e-5 M; type: functional, Homo sapiens
[14] = tested on: M14; experiment: In vitro cytotoxic activity against Melanoma (M14) cell line at a concentration of 10e-5 M; type: functional, Homo sapiens
[15] = tested on: MCF7; experiment: In vitro cytotoxic activity against breast (MCF-7/ADR) cell line at a concentration of 10e-5 M; type: functional, Homo sapiens
[16] = tested on: DU-145; experiment: In vitro cytotoxic activity against prostate (DU145) cell line; type: functional; settings: Homo sapiens
[17] = tested on: NCI-H522; experiment: In vitro cytotoxicity against H522 (human adenocarcinoma) cell line at a concentration of 10e-5 M.

Structure (SMILES) | Growth [1] [%] | GI50 [2] [µM] | GI50 [3] [µM] | GI50 [4] [µM] | GI50 [5] [µM] | Growth [6] [%] | Growth [7] [%] | GI50 [8] [µM] | GI50 [9] [µM] | Growth [10] [%] | Growth [11] [%] | GI50 [12] [µM] | Growth [13] [%] | Growth [14] [%] | Growth [15] [%] | GI50 [16] [µM] | Growth [17] [%]
CC(C)(C)OC(=O)NCC(=O)O[C@@H]1CC2C(C)(C)C(=O)C=C[C@]2(C)C2CC[C@]3(C)C(=CC[C@H]3c3ccoc3)[C@@]21C (stereo partly drawn) | 33 | 60 | 15 | 50 | 65 | 48 | 53 | 20 | 20 | 67 | 63 | 12 | 53 | 58 | 62 | 20 | –
CCOC1=C[C@@]2(C)C(C[C@@H](O)[C@@]3(C)C4=CC[C@@H](c5ccoc5)[C@]4(C)CCC23)C(C)(C)C1=O (stereo partly drawn) | 52 | – | – | – | – | 67 | – | – | – | 36 | 84 | – | 54 | 67 | 17 | – | 57
CCCC(=O)O[C@@H]1CC2C(C)(C)C(=O)C=C[C@]2(C)C2CC[C@]3(C)C(=CC[C@H]3c3ccoc3)[C@@]21C (stereo partly drawn) | 43 | – | – | – | – | 90 | – | – | – | 49 | 68 | – | 15 | 59 | 57 | – | 40
CCO[C@@H]1CC2C(C)(C)C(=O)C=C[C@]2(C)C2CC[C@]3(C)C(=CC[C@H]3c3ccoc3)[C@@]21C (stereo partly drawn) | 45 | – | – | – | – | 100 | – | – | – | 81 | 76 | – | 63 | 61 | 66 | – | 69
CC1(C)C(O)C=C[C@@]2(C)C1C[C@@H](O)[C@@]1(C)C3=CC[C@@H](c4ccoc4)[C@]3(C)CCC21 (stereo partly drawn) | 88.2 | – | – | – | – | 100 | – | – | – | 79.6 | 100 | – | 100 | 100 | 76 | – | 97
CC1(C)C(=O)C=C[C@@]2(C)C1C[C@@H](OC(=O)Nc1ccccc1)[C@@]1(C)C3=CC[C@@H](c4ccoc4)[C@]3(C)CCC21 (stereo partly drawn) | 100 | – | – | – | – | 100 | – | – | – | 64 | 76 | – | 71 | 74 | 55 | – | 51
CC1(C)C(=O)C=C[C@@]2(C)C1C[C@@H](OC(=O)C(F)(F)F)[C@@]1(C)C3=CC[C@@H](c4ccoc4)[C@]3(C)CCC21 (stereo partly drawn) | 59 | – | – | – | – | 49 | – | – | – | 60 | 77 | – | 52 | 86 | 54 | – | 75
CCOC1=C[C@@]2(C)C(C[C@@H](OC(C)=O)[C@@]3(C)C4=CC[C@@H](c5ccoc5)[C@]4(C)CCC23)C(C)(C)C1=O (stereo partly drawn) | 33 | 8 | 30 | 5 | 40 | 61 | – | 5 | 20 | 65 | 35 | 40 | 70 | 40 | 51 | 50 | 52
CCN(CC)CCO/N=C1\C=C[C@@]2(C)C(C[C@@H](OC(C)=O)[C@@]3(C)C4=CC[C@@H](c5ccoc5)[C@]4(C)CCC23)C1(C)C (stereo partly drawn) | 7 | 6 | 3 | 4 | 3 | 7 | – | 4 | 4 | 23 | 46 | 8 | 5 | 35 | 28 | 7 | 26
CC(=O)O[C@@H]1CC2C(C)(C)C(=O)[C@@H]3O[C@@H]3[C@]2(C)C2CC[C@]3(C)C(=CC[C@H]3c3ccoc3)[C@@]21C (stereo partly drawn) | 42.7 | – | – | – | – | 100 | – | – | – | 100 | 63.1 | – | 100 | 100 | 59.3 | – | 69.6
CC(=O)O[C@@H]1CC2C(C)(C)C(=O)C=C[C@]2(C)C2CC[C@]3(C)C(=CC[C@H]3C3=CC(=O)OC3O)[C@@]21C.CC(=O)O[C@@H]1CC2C(C)(C)C(=O)C=C[C@]2(C)C2CC[C@]3(C)C(=CC[C@H]3C3=CC(O)OC3=O)[C@@]21C (stereo partly drawn) | 70.3 | – | – | – | – | 41.6 | – | – | – | 100 | 24.8 | – | 44.3 | 71.3 | -13 | – | 73.3
CC(C)C(=O)O[C@@H]1CC2C(C)(C)C(=O)C=C[C@]2(C)C2CC[C@]3(C)C(=CC[C@H]3c3ccoc3)[C@@]21C (stereo partly drawn) | 74 | – | – | – | – | 84 | – | – | – | 61 | 69 | – | 40 | 95 | 57 | – | 54
COc1ccc(/C=C\C(=O)O[C@@H]2CC3C(C)(C)C(=O)C=C[C@]3(C)C3CC[C@]4(C)C(=CC[C@H]4c4ccoc4)[C@@]32C)cc1OC (stereo partly drawn) | 5 | – | – | – | – | 85 | – | – | – | 62 | 25 | – | 77 | 39 | 66 | – | 63
CC(=O)O[C@@H]1CC2C(C)(C)/C(=N/O)C=C[C@]2(C)C2CC[C@]3(C)C(=CC[C@H]3c3ccoc3)[C@@]21C (stereo partly drawn) | 20 | – | – | – | – | 87 | – | – | – | 47 | 56 | – | 5 | 38 | 55 | – | 44
CC(=O)OC1C=C[C@@]2(C)C(C[C@@H](OC(C)=O)[C@@]3(C)C4=CC[C@@H](c5ccoc5)[C@]4(C)CCC23)C1(C)C (stereo partly drawn) | 69 | – | – | – | – | 19.3 | – | – | – | 59 | 74 | – | 46 | 76 | 78 | – | 86
CC1(C)C(=O)C=C[C@@]2(C)C1C[C@@H](O)[C@@]1(C)C3=CC[C@@H](c4ccoc4)[C@]3(C)CCC21 (stereo partly drawn) | 65 | 5 | > 100 | 3.5 | > 100 | 64 | – | > 100 | 9 | 100 | 46 | > 100 | 46 | 15.8 | 36 | 9.5 | 100
COC1=C[C@@]2(C)C(C[C@@H](OC(C)=O)[C@@]3(C)C4=CC[C@@H](c5ccoc5)[C@]4(C)CCC23)C(C)(C)C1=O (stereo partly drawn) | 50 | 95 | 40 | 20 | 35 | 38 | – | 20 | 40 | 35 | 47 | 40 | 63 | 67 | 58 | 40 | 82
CCC(=O)O[C@@H]1CC2C(C)(C)C(=O)C=C[C@]2(C)C2CC[C@]3(C)C(=CC[C@H]3c3ccoc3)[C@@]21C (stereo partly drawn) | 67 | – | – | – | – | 61 | – | – | – | 51 | 67 | – | 40 | 39 | 29 | – | 48
CC1(C)C(=O)C=C[C@@]2(C)C1C[C@@H](OC(=O)/C=C\c1ccccc1)[C@@]1(C)C3=CC[C@@H](c4ccoc4)[C@]3(C)CCC21 (stereo partly drawn) | 48 | – | – | – | – | 86 | – | – | – | 86 | 81 | – | 41 | 41 | 55 | – | 69
CC1(C)C(=O)C=C[C@@]2(C)C1C[C@@H](OC(=O)CCl)[C@@]1(C)C3=CC[C@@H](c4ccoc4)[C@]3(C)CCC21 (stereo partly drawn) | -8 | 3 | 4 | 6 | 5 | 14 | 5 | 5 | 5 | 12 | 13 | 4 | 22 | -3 | -2 | 5 | –
